Laboratory results: PubChem BioAssay (NCI)
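These data come from cells grown in 96-well plates and exposed to compound for 48 hours at five concentrations. GI50 = concentration required for 50% inhibition of growth. TGI denotes the concentration required for complete inhibition of growth.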

What was measured:
Assay in all cases: NCI tumour cell line growth inhibition, 48 h
[1] = test system: 786-0 renal
[2] = test system: OVCAR-3 ovarian
[3] = test system: SK-MEL-5 melanoma
[4] = test system: MCF7 breast
[5] = test system: SK-OV-3 ovarian
[6] = test system: NCI-H460 lung
[7] = test system: KM12 colon
[8] = test system: HCC-2998 colon
[9] = test system: HT29 colon

| Compound | GI50 [1] | TGI [1] | GI50 [2] | TGI [2] | GI50 [3] | TGI [3] | GI50 [4] | TGI [4] | GI50 [5] | TGI [5] | TGI [6] | GI50 [7] | TGI [7] | GI50 [8] | TGI [8] | GI50 [9] | TGI [9] | GI50 [6] |
| --- | --- | --- | --- | --- | --- | --- | --- | --- | --- | --- | --- | --- | --- | --- | --- | --- | --- | --- |
| COc1cc(NS(C)(=O)=O)ccc1Nc1c2ccc([N+](=O)[O-])cc2nc2c(C)cccc12 | 0.362 µM | 6.04 µM | 1.17 µM | 9.16 µM | 0.194 µM | 1.81 µM | 0.0133 µM | 12.2 µM | 0.891 µM | 11.5 µM | 1.59 µM | 0.814 µM | 8.15 µM | 2.07 µM | 7.28 µM | 1.41 µM | 7.1 µM |  |
| F | 2550 µM | > 6870 µM | > 6870 µM | > 6870 µM | 1420 µM | 2700 µM | 4020 µM | > 6870 µM | 3680 µM | > 6870 µM | > 6870 µM | 2610 µM | > 6870 µM | 2610 µM | 6190 µM | 2110 µM | 6180 µM | 5410 µM |
| C/C(=N\NC(=O)c1sc(=S)n(C)c1N)c1cc2ccccc2o1 | 14.9 µM | 29.8 µM | 15.5 µM | 29.9 µM | 10.8 µM | 30.1 µM | 12.3 µM | 30.4 µM | 20.9 µM | 55.6 µM | 24.1 µM | 9.12 µM | 25.8 µM | 11.8 µM | 27 µM | 5.05 µM | 18.9 µM | 5.89 µM |
| CN(Cc1cnc2nc(N)nc(N)c2n1)c1ccc(C(=O)NC(CCC(=O)O)C(=O)O)cc1C(F)(F)F (stereo not drawn) |  | > 100 µM |  | > 100 µM |  | > 100 µM |  | > 100 µM |  | > 100 µM | > 100 µM |  | > 100 µM |  | > 100 µM |  | > 100 µM |  |
| N#Cc1c(-c2ccccc2)nc(SCC2CO2)nc1N1CCOCC1 (stereo not drawn) | 4.12 µM | > 46.1 µM | 5.27 µM | > 69.2 µM | 10.2 µM | > 100 µM | 3.06 µM | > 100 µM | 8.25 µM | 57.3 µM | > 100 µM | 25.8 µM | > 100 µM | 0.253 µM | 18.2 µM | 29.7 µM | > 100 µM | 6.59 µM |
| O=C[C@@H](CO)O[C@H](C=O)c1c[nH]c(=O)[nH]c1=O |  | 1310 µM |  | 309 µM |  | 309 µM |  | 428 µM |  | 473 µM | 508 µM |  | 362 µM |  | 338 µM |  | 595 µM |  |
| CCc1nc(N)nc(N)c1-c1ccc(NCCN)c([N+](=O)[O-])c1 |  | > 100 µM |  | > 100 µM |  | 40 µM |  | > 78.3 µM |  | > 100 µM | > 100 µM |  | > 100 µM |  | 50.7 µM |  | > 100 µM |  |
| CC12CCC3C(CCC4Cc5[nH]c6ccccc6c5CC43C)C1CCC2O (stereo not drawn) | 0.835 µM |  | 0.26 µM | 0.719 µM | 0.75 µM | > 100 µM | 0.373 µM | > 100 µM | 2.81 µM | > 100 µM | > 100 µM | 2.8 µM | 8.61 µM | 0.633 µM | 2.54 µM | 1.58 µM | > 27.1 µM | 0.609 µM |
| O=[N+]([O-])c1ccc(S(=O)(=O)Cc2ccccc2)c([N+](=O)[O-])c1 |  | 2.98 µM |  | 2.57 µM |  | 4.9 µM |  | 3.65 µM |  | 13.2 µM | 9.43 µM |  | 23.7 µM |  | 19.7 µM |  | 5.55 µM |  |
| Cn1cc(-c2ccc3c(Nc4cccc(NC(=O)Nc5cccc(F)c5)c4)ncnc3c2)cn1 | 1.87 µM | 4.46 µM | 1.51 µM | 3.27 µM | 1.53 µM | 2.94 µM | 1.14 µM | 5.07 µM | 0.61 µM | 13.1 µM | 2.41 µM | 2.52 µM | 10.8 µM | 4.81 µM | 16.2 µM | 1.97 µM | 12.6 µM | 0.984 µM |
| CC(=O)NCCc1c2c(c3nccc4c3c1Nc1ccccc1-4)OCS2 | 3.66 µM | 28.9 µM | 1.48 µM | 5.67 µM | 2.99 µM | 14.5 µM | 0.801 µM | 8.47 µM | 1.52 µM | 18.8 µM | 9.98 µM | 2.39 µM | 10.8 µM | 45.8 µM | > 100 µM | 0.968 µM | 4.77 µM | 0.498 µM |
| NC(=O)NNCc1ccccc1 |  | > 100 µM |  | > 100 µM |  | > 100 µM |  | > 100 µM |  | > 100 µM | > 100 µM |  | > 100 µM |  | > 100 µM |  | > 100 µM |  |
| Clc1ccc(CSC(Cn2ccnc2)c2ccc(Cl)cc2Cl)cc1 (stereo not drawn) | 1.61 µM | 3.13 µM | 1.54 µM | 2.87 µM | 1.61 µM | 2.96 µM | 1.6 µM | 2.99 µM | 1.7 µM | 3.91 µM | 2.78 µM | 1.66 µM | 3.3 µM | 1.64 µM | 3.12 µM | 1.44 µM | 2.81 µM | 1.47 µM |
| COc1ccc(-c2cc(-c3cc(Cl)ccc3Cl)nc3n[nH]c(N)c23)cc1 | 19.3 µM | 54.1 µM | 8.82 µM | 61.9 µM | 14.4 µM | 34.5 µM | 3.45 µM | > 100 µM | 34.5 µM | > 100 µM | 39.3 µM | 8.26 µM | 83.6 µM | 15.2 µM | 34.6 µM | 6.32 µM | > 100 µM | 6.68 µM |
| CC[C@]12CCCN3CCc4c(n(c5ccccc45)C(=O)C1)[C@@H]32 |  | > 56.2 µM |  | 5.81 µM |  | > 35.1 µM |  | > 100 µM |  | 87.7 µM | > 100 µM |  | > 100 µM |  | 19.4 µM |  | > 52.7 µM |  |
| COc1cccc2c1C(=O)C=CC2=O |  | 23.9 µM |  | 3.51 µM |  | 30.3 µM |  | 4.82 µM |  | 36.2 µM | 32.6 µM |  | 25 µM |  | 29.3 µM |  | 26.9 µM |  |
